The values that follow come from ChEMBL document CHEMBL5465560, “Selectivity Literature for EUbOPEN Chemogenomic Library” (2024).

For assay [1], the target named is T1, Mitogen-activated protein kinase kinase kinase 2 (Homo sapiens) (UniProt Q9Y2U5).
T1 sequence (whole entry): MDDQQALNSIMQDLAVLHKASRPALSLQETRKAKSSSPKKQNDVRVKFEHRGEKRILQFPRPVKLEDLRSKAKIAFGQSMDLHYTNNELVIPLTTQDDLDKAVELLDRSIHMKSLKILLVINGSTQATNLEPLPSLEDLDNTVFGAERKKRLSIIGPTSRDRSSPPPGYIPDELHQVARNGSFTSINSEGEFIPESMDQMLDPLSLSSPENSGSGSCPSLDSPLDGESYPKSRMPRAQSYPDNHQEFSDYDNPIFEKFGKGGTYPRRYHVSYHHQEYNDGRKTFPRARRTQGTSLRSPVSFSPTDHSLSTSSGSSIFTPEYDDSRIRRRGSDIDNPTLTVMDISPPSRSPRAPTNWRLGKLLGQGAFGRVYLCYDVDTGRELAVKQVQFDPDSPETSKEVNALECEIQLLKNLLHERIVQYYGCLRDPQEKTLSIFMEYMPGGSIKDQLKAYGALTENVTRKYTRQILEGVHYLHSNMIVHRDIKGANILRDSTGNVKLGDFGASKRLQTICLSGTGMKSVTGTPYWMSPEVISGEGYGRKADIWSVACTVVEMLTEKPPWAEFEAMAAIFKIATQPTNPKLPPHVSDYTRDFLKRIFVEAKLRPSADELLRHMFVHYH
The assay is described as follows: Selectivity interaction (KinomeScan (DiscoverX)) EUB0000607a MAP3K2. The settings on record: at 10 µM.

Assay [2] has as its target STE20/SPS1-related proline-alanine-rich protein kinase (Homo sapiens) (UniProt Q9UEW8). The assay is described as follows: Selectivity interaction (Kinome Scan (DiscoverX)) EUB0000229b STK39. The following applies: at 10 µM.
Assay [3] concerns the target T2, Inhibitor of nuclear factor kappa-B kinase subunit alpha (Homo sapiens) (UniProt O15111).
T2 sequence (whole entry): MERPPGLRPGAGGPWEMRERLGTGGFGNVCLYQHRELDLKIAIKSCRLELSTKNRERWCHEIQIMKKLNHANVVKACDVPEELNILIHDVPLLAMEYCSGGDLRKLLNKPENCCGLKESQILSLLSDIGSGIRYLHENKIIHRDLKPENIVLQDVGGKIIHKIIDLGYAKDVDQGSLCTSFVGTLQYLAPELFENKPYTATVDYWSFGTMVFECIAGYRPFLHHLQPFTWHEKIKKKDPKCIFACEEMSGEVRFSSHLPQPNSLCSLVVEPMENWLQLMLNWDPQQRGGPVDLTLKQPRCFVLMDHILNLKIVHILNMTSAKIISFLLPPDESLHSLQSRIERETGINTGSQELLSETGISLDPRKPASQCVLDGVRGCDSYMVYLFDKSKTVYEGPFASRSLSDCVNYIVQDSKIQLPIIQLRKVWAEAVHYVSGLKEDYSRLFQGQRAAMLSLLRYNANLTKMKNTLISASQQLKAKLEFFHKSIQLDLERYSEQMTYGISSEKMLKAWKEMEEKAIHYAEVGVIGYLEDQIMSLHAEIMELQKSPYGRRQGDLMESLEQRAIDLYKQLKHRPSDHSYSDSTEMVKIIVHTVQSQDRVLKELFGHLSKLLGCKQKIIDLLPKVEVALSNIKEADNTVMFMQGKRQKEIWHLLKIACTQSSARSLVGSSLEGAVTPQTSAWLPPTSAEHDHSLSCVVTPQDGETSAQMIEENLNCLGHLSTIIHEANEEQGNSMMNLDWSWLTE
The assay can be described thus: Selectivity interaction (ActivX KiNativ screen (ex vivo kinase selectivity in human PBMCs)) EUB0001619a CHUK. The class given is cell-based. The settings on record: PBMC, at 1 µM.

Assay [4] concerns the target T3, Mitogen-activated protein kinase kinase kinase 7 (Homo sapiens) (UniProt O43318).
T3 sequence (whole entry): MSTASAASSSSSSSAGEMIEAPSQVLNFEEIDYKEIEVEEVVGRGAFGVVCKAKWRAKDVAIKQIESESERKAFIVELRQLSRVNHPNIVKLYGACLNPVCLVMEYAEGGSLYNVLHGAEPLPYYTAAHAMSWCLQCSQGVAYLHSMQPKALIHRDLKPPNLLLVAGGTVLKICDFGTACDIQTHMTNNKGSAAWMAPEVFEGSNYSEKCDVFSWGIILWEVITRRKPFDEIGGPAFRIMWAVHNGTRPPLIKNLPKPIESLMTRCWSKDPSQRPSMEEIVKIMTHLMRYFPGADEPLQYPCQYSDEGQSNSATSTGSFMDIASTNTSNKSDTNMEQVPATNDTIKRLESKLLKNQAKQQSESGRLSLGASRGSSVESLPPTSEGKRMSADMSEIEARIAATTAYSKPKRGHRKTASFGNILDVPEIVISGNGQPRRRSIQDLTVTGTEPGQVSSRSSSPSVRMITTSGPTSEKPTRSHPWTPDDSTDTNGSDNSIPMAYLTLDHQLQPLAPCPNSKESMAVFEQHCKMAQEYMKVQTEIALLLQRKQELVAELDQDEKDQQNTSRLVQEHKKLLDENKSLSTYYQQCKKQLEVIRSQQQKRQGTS
The assay can be described thus: Selectivity interaction (KinomeScan (DiscoverX)) EUB0001619a MAP3K7. The following applies: at 1 µM.

In assay [5] the target is T4, Activin receptor type-1B (Homo sapiens) (UniProt P36896).
T4 sequence (whole entry): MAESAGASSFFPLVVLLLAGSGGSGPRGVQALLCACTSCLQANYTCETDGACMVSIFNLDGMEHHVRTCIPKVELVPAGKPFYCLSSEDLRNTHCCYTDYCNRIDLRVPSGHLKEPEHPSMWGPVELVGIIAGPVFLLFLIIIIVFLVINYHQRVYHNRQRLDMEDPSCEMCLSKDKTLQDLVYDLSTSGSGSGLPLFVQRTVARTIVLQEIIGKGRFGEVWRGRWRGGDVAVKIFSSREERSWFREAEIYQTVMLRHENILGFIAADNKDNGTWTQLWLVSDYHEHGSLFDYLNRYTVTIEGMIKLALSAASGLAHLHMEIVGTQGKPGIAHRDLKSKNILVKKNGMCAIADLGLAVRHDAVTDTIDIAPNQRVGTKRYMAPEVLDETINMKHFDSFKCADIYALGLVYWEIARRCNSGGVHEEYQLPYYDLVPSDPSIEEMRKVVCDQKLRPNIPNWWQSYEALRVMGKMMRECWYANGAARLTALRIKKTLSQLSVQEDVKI
The assay is described as follows: Selectivity interaction (Kinase panel (Invitrogen)) EUB0000639a ACVR1B. The following applies: at 200 nM.

Assay [6] addresses Serine/threonine-protein kinase PAK 2 (Homo sapiens) (UniProt Q13177). The assay is described as follows: Selectivity interaction (Kinase panel (Invitrogen)) EUB0000639a PAK2. The settings on record: at 200 nM.
Assay [7] deals with 5-hydroxytryptamine receptor 2A (Homo sapiens, UniProt P28223). The assay can be described thus: Selectivity interaction (Panel of kinases, GPCRs, ion channels and transporters (enzymatic assay)) EUB0000223bCl HTR2A.
Assay [8] addresses Serine/threonine-protein kinase PAK 4 (Homo sapiens, UniProt O96013). The assay can be described thus: Selectivity interaction (KinomeScan (DiscoverX)) EUB0000045b PAK4.
Assay [9] deals with Tyrosine-protein kinase SYK (Homo sapiens, UniProt P43405). The assay can be described thus: Selectivity interaction (KinomeScan (DiscoverX)) EUB0000595a SYK. The settings on record: at 10 µM.

Chain of Serine/threonine-protein kinase PAK 4 (O96013 whole entry, looked up): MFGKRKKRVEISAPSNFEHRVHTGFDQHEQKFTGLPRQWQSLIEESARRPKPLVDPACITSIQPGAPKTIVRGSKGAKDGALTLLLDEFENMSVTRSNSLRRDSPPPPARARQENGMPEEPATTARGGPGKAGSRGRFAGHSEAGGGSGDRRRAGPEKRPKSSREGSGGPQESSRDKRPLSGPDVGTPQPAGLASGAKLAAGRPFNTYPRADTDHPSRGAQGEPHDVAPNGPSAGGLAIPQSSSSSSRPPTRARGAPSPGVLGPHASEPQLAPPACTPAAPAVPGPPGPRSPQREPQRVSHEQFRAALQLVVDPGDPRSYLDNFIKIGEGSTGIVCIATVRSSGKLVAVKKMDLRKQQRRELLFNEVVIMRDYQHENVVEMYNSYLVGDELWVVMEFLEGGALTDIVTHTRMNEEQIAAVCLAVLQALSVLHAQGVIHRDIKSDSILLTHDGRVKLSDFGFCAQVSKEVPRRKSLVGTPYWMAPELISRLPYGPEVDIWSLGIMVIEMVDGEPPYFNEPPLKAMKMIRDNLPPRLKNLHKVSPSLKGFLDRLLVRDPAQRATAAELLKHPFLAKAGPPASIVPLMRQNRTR
Chain of Serine/threonine-protein kinase PAK 2 (Homo sapiens) (Q13177 whole entry): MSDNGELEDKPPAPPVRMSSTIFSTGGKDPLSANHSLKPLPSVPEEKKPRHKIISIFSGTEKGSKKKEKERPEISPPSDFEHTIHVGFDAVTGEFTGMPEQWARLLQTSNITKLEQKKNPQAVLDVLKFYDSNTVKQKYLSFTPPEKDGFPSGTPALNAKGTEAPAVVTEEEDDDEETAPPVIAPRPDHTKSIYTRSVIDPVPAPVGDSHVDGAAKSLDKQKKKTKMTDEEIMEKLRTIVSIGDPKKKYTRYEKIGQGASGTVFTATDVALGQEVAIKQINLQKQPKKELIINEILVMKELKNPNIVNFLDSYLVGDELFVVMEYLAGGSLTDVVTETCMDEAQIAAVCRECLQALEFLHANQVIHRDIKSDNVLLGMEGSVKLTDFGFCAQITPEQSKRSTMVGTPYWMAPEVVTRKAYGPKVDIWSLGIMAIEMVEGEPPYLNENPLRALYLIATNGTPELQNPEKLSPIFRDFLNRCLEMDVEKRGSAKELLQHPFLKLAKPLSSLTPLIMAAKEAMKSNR
Chain of 5-hydroxytryptamine receptor 2A (P28223 whole entry): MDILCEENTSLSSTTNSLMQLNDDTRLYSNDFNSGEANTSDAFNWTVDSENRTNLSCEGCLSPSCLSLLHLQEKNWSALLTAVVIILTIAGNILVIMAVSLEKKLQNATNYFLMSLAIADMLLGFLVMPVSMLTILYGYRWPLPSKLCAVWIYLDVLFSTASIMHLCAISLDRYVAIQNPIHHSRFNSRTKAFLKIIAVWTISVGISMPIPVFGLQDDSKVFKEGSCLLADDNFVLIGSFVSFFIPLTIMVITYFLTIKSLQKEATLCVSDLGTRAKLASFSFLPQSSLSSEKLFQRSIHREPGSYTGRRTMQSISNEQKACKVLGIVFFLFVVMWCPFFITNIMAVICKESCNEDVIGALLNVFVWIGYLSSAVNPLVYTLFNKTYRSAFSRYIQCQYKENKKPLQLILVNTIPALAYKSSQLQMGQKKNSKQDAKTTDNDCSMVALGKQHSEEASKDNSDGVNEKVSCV

Compound `CNC(=O)Nc1ccc(-c2nc(N3CC4CCC(C3)O4)c3cnn(C4CCC5(CC4)OCCO5)c3n2)cc1` gave a % of control in assay [1] of 95%.

In assay [2], `COc1cc(N(C)c2ccnc3ccc(C(F)(F)F)cc23)cc(OC)c1OC` displayed a % binding of 98%.

As to `N#Cc1cccc(-c2c[nH]c3ncnc(N4CCOCC4)c23)c1`, the % of inhibition in assay [3] was -7%. The same compound had a % of control in assay [4] of 55%.

Take `CC[C@@H]1[C@H](F)C(=O)N[C@@H]1COc1nccc2cc(C(N)=O)c(OC)cc12` [ZIMLOVISERTIB]: the % of inhibition came to 2.54% in assay [5] and 3.6% in [6].

The compound `COc1cc(C(=O)N2CC[C@@H](O)[C@@H](N)C2)cc2nc(-c3cc4ccccc4n3CC3CC3)n(C)c12` showed a pXC50 in assay [7] of less than 4.4 M.

For `C=CC(=O)Nc1cc(-n2c(=O)ccc3cnc4ccc(-c5ccc(NS(C)(=O)=O)cc5)cc4c32)ccc1C`, the % of control in [8] (at 1 µM) and in [8] (at 10 µM) was 100% each time.

In the case of `COCC(=O)NC/C=C/c1ccc2ncnc(Nc3ccc(Oc4ccc(C)nc4)c(C)c3)c2c1` [CP-724714], the % of control in [9] came to 100%.
